Key:
B. subtilis 168 [1] = test: fitness (endpoint OD595 vs no drug) (fraction); higher = more growth
Outline: (§1)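 Plates with 384 wells were inoculated at OD595 0.01 using 30 µl of TSB, LB Lennox or CY, or 55 µl for S. pneumoniae. Incubation was at 37 °C, with OD595 measured every 30 min for 14 h. Fitness is the stationary-phase transition optical density over the robust mean of no-drug control wells, after first-reading background subtraction; it is capped at 1.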

S. pneumoniae D39V [2] = test: as above
Outline: as §1

B. subtilis 168 [3] = test: Bliss interaction score (quartile over a dose matrix) (fitness difference); higher = more antagonism (negative = synergy)
Outline: (§2)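 The Bliss score takes observed fitness and subtracts the expected fitness, calculated as a product of single-drug fitness values. Those single-drug values were inferred from the combination data. Fitness is OD595 at entry into stationary phase divided by the plate's robust no-drug mean, capped at 1, and the score is summarised by quartiles across technical, biological and donor/recipient replicates.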

S. aureus DSM 20231 = test: as above
Outline: as §2

S. aureus Newman = test: as above
Outline: as §2

S. pneumoniae D39V [4] = test: as above
Outline: as §2
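For Bliss interaction score (quartile over a dose matrix) in this document: first quartile when negative (synergy) and third quartile when positive (antagonism).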

C[C@@H]1O[C@@H]1P(=O)(O)O [Fosfomycin] + CCC(C)C1C(=O)NC(=C)C(=O)NC(C(=O)NC(CSCC(C(=O)N1)NC(=O)/C(=C/C)/NC(=O)C(C(C)CC)N)C(=O)NC2C(SCC(NC(=O)CNC(=O)C3CCCN3C2=O)C(=O)NC(CCCCN)C(=O)NC4C(SCC(NC(=O)CNC(=O)C(NC(=O)C(NC(=O)C(NC(=O)CNC4=O)C)CC(C)C)CCSC)C(=O)NC(CC(=O)N)C(=O)NC(CCSC)C(=O)NC(CCCCN)C(=O)NC5C(SCC6C(=O)NC(C(=O)NC(CSC(C(C(=O)N6)NC(=O)C(NC5=O)C)C)C(=O)NC(CO)C(=O)NC(C(C)CC)C(=O)NC(CC7=CN=CN7)C(=O)NC(C(C)C)C(=O)NC(=C)C(=O)NC(CCCCN)C(=O)O)CC8=CN=CN8)C)C)C)CC(C)C [Nisin]
fitness, main component drawn
Conditions	partner 0.4275 µg/mL	partner 0.5 µg/mL	partner 0.855 µg/mL	partner 1 µg/mL	partner 1.6 µg/mL	partner 1.71 µg/mL	partner 2 µg/mL	partner 3.2 µg/mL	partner 6.4 µg/mL
B. subtilis 168 [1], first compound 1.562 µg/mL	–	0.712	–	0.609	–	–	0.45	–	–
B. subtilis 168 [1], first compound 3.124 µg/mL	–	0.59	–	0.542	–	–	0.368	–	–
B. subtilis 168 [1], first compound 6.248 µg/mL	–	0.463	–	0.397	–	–	0.285	–	–
S. pneumoniae D39V [2], first compound 1.25 µg/mL	≥ 1	–	≥ 1	–	0.0178	0.0788	–	0.0247	0.0308
S. pneumoniae D39V [2], first compound 2.5 µg/mL	0.942	–	0.998	–	0.0062	0.0945	–	0.0256	0.0213
S. pneumoniae D39V [2], first compound 5 µg/mL	0.852	–	0.889	–	0.0119	0.111	–	0.0102	0.0062

fitness, B. subtilis 168 [1], one replicate, main component drawn
Conditions	partner 1.25 µg/mL	partner 1.6 µg/mL	partner 2.5 µg/mL	partner 3.2 µg/mL	partner 4 µg/mL	partner 5 µg/mL	partner 6.4 µg/mL	partner 8 µg/mL	partner 16 µg/mL
first compound 1.562 µg/mL	0.687	0.577	0.527	0.0483	0.0272	0.0426	0.0336	0.0224	0.0164
first compound 3.124 µg/mL	0.613	0.469	0.303	0.024	0.0425	0.0431	0.0247	0.0352	0.0164
first compound 6.248 µg/mL	0.513	0.298	0.127	0.0136	0.0038	0.0232	0.0329	0.007	0.0049

main component drawn
Conditions	Bliss interaction score
B. subtilis 168 [3]	-0.0482
S. aureus DSM 20231	0.0654
S. aureus Newman	-0.0541
S. pneumoniae D39V [4]	-0.0374

C[C@H]1c2cccc(O)c2C(=O)C2=C(O)[C@]3(O)C(=O)C(C(N)=O)=C(O)[C@@H](N(C)C)[C@@H]3[C@@H](O)[C@@H]21 [Doxycycline] + CN(C)C(=O)C(CCN1CCC(O)(c2ccc(Cl)cc2)CC1)(c1ccccc1)c1ccccc1 [Loperamide]
Conditions	fitness
B. subtilis 168 [1], first compound 0.02 µg/mL, partner 25 µg/mL	0.544
B. subtilis 168 [1], first compound 0.02 µg/mL, partner 50 µg/mL	0.0585
B. subtilis 168 [1], first compound 0.02 µg/mL, partner 100 µg/mL	0.0358
B. subtilis 168 [1], first compound 0.04 µg/mL, partner 25 µg/mL	0.0527
B. subtilis 168 [1], first compound 0.04 µg/mL, partner 50 µg/mL	0.0434
B. subtilis 168 [1], first compound 0.04 µg/mL, partner 100 µg/mL	0.0354
B. subtilis 168 [1], first compound 0.08 µg/mL, partner 25 µg/mL	0.0276
B. subtilis 168 [1], first compound 0.08 µg/mL, partner 50 µg/mL	0.0338
B. subtilis 168 [1], first compound 0.08 µg/mL, partner 100 µg/mL	0.0354
S. pneumoniae D39V [2], first compound 0.0155 µg/mL, partner 17.14 µg/mL	0.874
S. pneumoniae D39V [2], first compound 0.0155 µg/mL, partner 20 µg/mL	≥ 1
S. pneumoniae D39V [2], first compound 0.0155 µg/mL, partner 34.28 µg/mL	0.861
S. pneumoniae D39V [2], first compound 0.0155 µg/mL, partner 40 µg/mL	≥ 1
S. pneumoniae D39V [2], first compound 0.0155 µg/mL, partner 80 µg/mL	≥ 1
S. pneumoniae D39V [2], first compound 0.031 µg/mL, partner 17.14 µg/mL	0.939
S. pneumoniae D39V [2], first compound 0.031 µg/mL, partner 34.28 µg/mL	0.932
S. pneumoniae D39V [2], first compound 0.062 µg/mL, partner 17.14 µg/mL	0.864
S. pneumoniae D39V [2], first compound 0.062 µg/mL, partner 34.28 µg/mL	0.895

fitness, S. pneumoniae D39V [2], one replicate
Conditions	first compound 0.003875 µg/mL	first compound 0.00775 µg/mL	first compound 0.0155 µg/mL	first compound 0.031 µg/mL	first compound 0.062 µg/mL
partner 20 µg/mL	≥ 1	≥ 1	–	0.976	0.836
partner 40 µg/mL	≥ 1	≥ 1	–	0.942	0.826
partner 68.57 µg/mL	–	–	0.858	0.875	0.966
partner 80 µg/mL	≥ 1	≥ 1	–	0.973	0.764

Conditions	Bliss interaction score
B. subtilis 168 [3]	-0.189
S. aureus DSM 20231	0.107
S. aureus Newman	0.0172
S. pneumoniae D39V [4]	0.193

C[C@H]1c2cccc(O)c2C(=O)C2=C(O)[C@]3(O)C(=O)C(C(N)=O)=C(O)[C@@H](N(C)C)[C@@H]3[C@@H](O)[C@@H]21 [Doxycycline] + Cc1ncc([N+](=O)[O-])n1CCO [Metronidazole]
fitness
Conditions	partner 0.625 µg/mL	partner 1.073 µg/mL	partner 1.25 µg/mL	partner 2.145 µg/mL	partner 2.5 µg/mL	partner 4.29 µg/mL	partner 5 µg/mL
B. subtilis 168 [1], first compound 0.02 µg/mL	0.914	–	0.899	–	0.933	–	–
B. subtilis 168 [1], first compound 0.04 µg/mL	0.774	–	0.835	–	0.844	–	–
B. subtilis 168 [1], first compound 0.08 µg/mL	0.701	–	0.682	–	0.61	–	–
S. pneumoniae D39V [2], first compound 0.0155 µg/mL	–	0.873	0.994	0.851	≥ 1	0.809	0.968
S. pneumoniae D39V [2], first compound 0.031 µg/mL	–	0.889	–	0.853	–	0.835	–
S. pneumoniae D39V [2], first compound 0.062 µg/mL	–	0.838	–	0.865	–	0.829	–

fitness, S. pneumoniae D39V [2], one replicate
Conditions	first compound 0.003875 µg/mL	first compound 0.00775 µg/mL	first compound 0.031 µg/mL	first compound 0.062 µg/mL
partner 1.25 µg/mL	≥ 1	≥ 1	0.938	0.775
partner 2.5 µg/mL	≥ 1	≥ 1	0.91	0.794
partner 5 µg/mL	≥ 1	≥ 1	0.892	0.757

Conditions	Bliss interaction score
B. subtilis 168 [3]	0.0635
S. aureus DSM 20231	0.0684
S. aureus Newman	0.0262
S. pneumoniae D39V [4]	0.0539

C[C@H]1c2cccc(O)c2C(=O)C2=C(O)[C@]3(O)C(=O)C(C(N)=O)=C(O)[C@@H](N(C)C)[C@@H]3[C@@H](O)[C@@H]21 [Doxycycline] + CC(=O)NC[C@H]1CN(c2ccc(N3CCOCC3)c(F)c2)C(=O)O1 [Linezolid]
fitness, one replicate
Conditions	first compound 0.003875 µg/mL	first compound 0.00775 µg/mL	first compound 0.02 µg/mL	first compound 0.031 µg/mL	first compound 0.04 µg/mL	first compound 0.062 µg/mL	first compound 0.08 µg/mL
B. subtilis 168 [1], partner 0.0625 µg/mL	–	–	0.775	–	0.51	–	0.0619
S. pneumoniae D39V [2], partner 0.2 µg/mL	0.796	0.774	–	0.668	–	0.465	–
S. pneumoniae D39V [2], partner 0.4 µg/mL	0.7	0.65	–	0.4	–	0.241	–
S. pneumoniae D39V [2], partner 0.8 µg/mL	0.353	0.37	–	0.24	–	0.116	–

Conditions	fitness
B. subtilis 168 [1], first compound 0.02 µg/mL, partner 0.5 µg/mL	0.0524
B. subtilis 168 [1], first compound 0.04 µg/mL, partner 0.5 µg/mL	0.0497
B. subtilis 168 [1], first compound 0.08 µg/mL, partner 0.25 µg/mL	0.0313
B. subtilis 168 [1], first compound 0.08 µg/mL, partner 0.5 µg/mL	0.0418
S. pneumoniae D39V [2], first compound 0.0155 µg/mL, partner 0.105 µg/mL	0.702
S. pneumoniae D39V [2], first compound 0.0155 µg/mL, partner 0.2 µg/mL	0.776
S. pneumoniae D39V [2], first compound 0.0155 µg/mL, partner 0.21 µg/mL	0.595
S. pneumoniae D39V [2], first compound 0.0155 µg/mL, partner 0.4 µg/mL	0.575
S. pneumoniae D39V [2], first compound 0.0155 µg/mL, partner 0.42 µg/mL	0.406
S. pneumoniae D39V [2], first compound 0.0155 µg/mL, partner 0.8 µg/mL	0.325
S. pneumoniae D39V [2], first compound 0.031 µg/mL, partner 0.105 µg/mL	0.694
S. pneumoniae D39V [2], first compound 0.031 µg/mL, partner 0.21 µg/mL	0.602
S. pneumoniae D39V [2], first compound 0.031 µg/mL, partner 0.42 µg/mL	0.297
S. pneumoniae D39V [2], first compound 0.062 µg/mL, partner 0.105 µg/mL	0.606
S. pneumoniae D39V [2], first compound 0.062 µg/mL, partner 0.21 µg/mL	0.477
S. pneumoniae D39V [2], first compound 0.062 µg/mL, partner 0.42 µg/mL	0.207

Conditions	Bliss interaction score
B. subtilis 168 [3]	-0.137
S. aureus DSM 20231	-0.0188
S. aureus Newman	-0.0282
S. pneumoniae D39V [4]	-0.197

Source: the supplement of paper PMC10627819
